According to US8703790B2, “Bis [O-(14-benzoylaconine-8-yl)] esters” (priority 2008, dated 2014):

Assays:
[1] = system: MCF-7; assay: Cell cycle arrest, propidium iodide flow cytometry, MCF-7; type: cell-based, human
Description: 10^6 Cells of A549, HCT-15 and MCF-7 cell lines have been seeded in Petri dishes with RPMI-1640 medium. 24 h later, SDD has been dissolved in water at a concentration of 20 μM and was directly added to the culture medium. Contact was maintained for 72 h. Then, cells have been detached by trypsinization, collected and rinsed by PBS and counted on hemocytometer. Cells were centrifuged for 5 min at 1500 rpm, then resuspended in a defined volume of PBS to obtain 2.5×10^6 cell/mL. 100 μL of cell suspension was digested to nuclei by trypsin for 10 min. Then, a solution containing trypsin inhibitor and RNAse was added to cell suspension and left for 10 min. Finally, cells were stained by propidium iodide and were analysed by flow-cytometry apparatus. Distribution of cells among the different phases of the cycle was determined by the procedure disclosed in: A detergent-trypsin method for preparation of nuclei for flow cytometric DNA analysis. Vindelov, L.; Christensen, I.; Nissen, N.; Cytometry (1983), 3, 323-327.
• G0G1: cell in the phase of GOG1 • G2M: cells in the phase of G2M • S: cells in the phase of DNA synthesis • Sub G1: apoptotic cells • SUP G2M: diploidic cells

[2] = target: T1, purified human recombinant Top 1 (Homo sapiens, UniProt P11387); assay: Top1-catalysed cleavage assay; type: biochemical; conditions: 1, 10, 100 and 1000 μM
T1 sequence (P11387 1-765): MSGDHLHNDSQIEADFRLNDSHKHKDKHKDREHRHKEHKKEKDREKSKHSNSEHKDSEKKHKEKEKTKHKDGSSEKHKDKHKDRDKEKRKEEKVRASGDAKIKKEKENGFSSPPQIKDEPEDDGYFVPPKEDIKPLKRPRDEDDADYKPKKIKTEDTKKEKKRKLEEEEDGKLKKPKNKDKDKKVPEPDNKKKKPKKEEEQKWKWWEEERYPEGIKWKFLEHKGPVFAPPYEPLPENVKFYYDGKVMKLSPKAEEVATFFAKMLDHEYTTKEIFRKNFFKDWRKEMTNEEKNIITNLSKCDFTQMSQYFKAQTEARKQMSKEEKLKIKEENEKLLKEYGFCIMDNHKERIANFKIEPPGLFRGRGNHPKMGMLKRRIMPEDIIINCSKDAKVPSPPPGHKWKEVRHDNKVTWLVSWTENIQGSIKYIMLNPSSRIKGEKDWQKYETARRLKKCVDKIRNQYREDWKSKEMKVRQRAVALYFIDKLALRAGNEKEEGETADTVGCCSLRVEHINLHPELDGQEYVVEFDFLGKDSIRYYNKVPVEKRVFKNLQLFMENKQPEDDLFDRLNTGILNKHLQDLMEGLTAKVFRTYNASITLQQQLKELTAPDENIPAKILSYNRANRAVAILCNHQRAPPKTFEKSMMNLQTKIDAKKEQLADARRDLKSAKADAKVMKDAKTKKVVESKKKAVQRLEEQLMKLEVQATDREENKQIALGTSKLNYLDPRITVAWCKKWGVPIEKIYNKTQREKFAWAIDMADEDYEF
Description: The influence of SDD has been studied at various concentrations on Top 1 cleavage activity in comparison with Camptothecin.
The method consists in an incubation of 3′-labeled oligonucleotides with enzyme Top1, or Top 1+CPT or Top 1-SDD.
3′-end labelling of the scissile strand was performed as described previously in the publication: Conversion of topoisomerase I cleavage complexes on the leading strand of ribosomal DNA into 5′-phosphorylated DNA double-strand breaks by replication runoff. Pommier, Y.; Jenkins, J.; Kohlhagen, G.; and Leteurtre, F.; Mutat. Res. (1995), 337, 135-145.
Thus, 10 pmol of […] was incubated in labelling buffer (100 mM potassium cacodylate, pH 7.2, 2 mM CaCl2, 200 μM DTT) for 1 h at 37° C.
The reaction mixture was passed through a G-25 Sephadex spin column by centrifugation at 1000 g for 5 min to remove the excess of unincorporated nucleotide.
The 3′-labeled oligonucleotide was mixed with the same amount of unlabeled complementary strand in annealing buffer (i.e. 10 mM Tris-HCl, pH 7.8, […]) and annealed by heating the reaction mixture for 5 min at 95° C. followed by slow cool down at room temperature. […]
Imaging and quantification of the cleavage products were performed using a Typhoon Phosphorimager (Amersham Biosciences) as described in Inhibition of Topoisomerase I cleavage activity by thiol-reactive compounds. […]

[3] = MCF-7, SDD 20 μM, 72 h, percentage of total cell population

CCN1C[C@]2(COC)[C@H](O)C[C@H](OC)[C@]34C1[C@H]([C@H](OC)[C@H]23)[C@]1(OC(=O)CCCCCCC(=O)O[C@]23[C@H]5[C@@H](OC(=O)c6ccccc6)[C@](O)(C[C@H]5[C@@]56C7[C@@H]2[C@H](OC)[C@@H]5[C@](COC)(CN7CC)[C@H](O)C[C@@H]6OC)[C@@H](OC)[C@@H]3O)[C@H]2[C@@H](OC(=O)c3ccccc3)[C@](O)(C[C@H]24)[C@@H](OC)[C@@H]1O [SDD, bis[O-(14-benzoylaconine-8-yl)]-suberate] was tested, and the “accumulation of cells in the G2M and S phases” value ([1]; MCF-7, 20 μM) was “moderate accumulation”, the ALL % [1, 3] was 100% and the G0G1 % [1, 3] was 58.73%. The G2M % [1, 3] was 16.96%, the S % [1, 3] was 21.44% and the “SUP G2M % (diploidic cells)” value [1, 3] was 1.72%. For the same compound, the “SubG1 % (apoptotic cells)” value [1, 3] was 2.05%, the “cell distribution in the cycle” value ([1]; MCF-7, SDD concentration 5 times higher than IC50) was “not altered” and the “Percentage of survival cells, G0G1 %” value ([1]; MCF-7, SDD, survival cells) was 60.46%. The “Percentage of survival cells, G2M %” value ([1]; MCF-7, SDD, survival cells) was 17.46%, the “Percentage of survival cells, S %” value ([1]; MCF-7, SDD, survival cells) was 22.08% and the “Top 1 inhibitory activity compared with camptothecin” value [2] was “no Top 1 inhibitory activity”.
